# Measurements published in US10787462B2, “Heterocyclic compound” (TAKEDA PHARMACEUTICAL COMPANY LIMITED, priority 2015, dated 2020).
# Target: T1, human RIPK1 (1-375) (Homo sapiens, UniProt Q13546)
# T1 construct: human RIPK1 (1-375) gene; GST; made in house; host or cells: Sf-9 insect cells
# T1 sequence (Q13546 1-375): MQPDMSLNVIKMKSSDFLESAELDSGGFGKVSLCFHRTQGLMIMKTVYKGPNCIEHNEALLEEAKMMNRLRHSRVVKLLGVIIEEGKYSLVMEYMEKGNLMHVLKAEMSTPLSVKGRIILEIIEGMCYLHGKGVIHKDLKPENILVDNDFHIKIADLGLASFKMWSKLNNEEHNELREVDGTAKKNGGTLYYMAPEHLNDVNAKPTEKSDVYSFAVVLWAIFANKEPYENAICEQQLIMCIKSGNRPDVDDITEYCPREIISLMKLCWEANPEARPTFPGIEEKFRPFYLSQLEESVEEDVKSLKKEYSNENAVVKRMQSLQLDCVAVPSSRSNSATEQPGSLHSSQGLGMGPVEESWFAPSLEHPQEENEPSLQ
# Test: Human RIPK1 enzyme inhibitory effect (ADP-Glo Kinase Assay)
# Type: biochemical
# Settings: 10 μM test compound; well without enzyme = 100% inhibition; 10 µM
# Procedure: Experimental Example 1: Human RIPK1 Enzyme Inhibitory Effect
# Enzyme was prepared by transducing human RIPK1 (1-375) gene to Sf-9 insect cells, and purifying using GST affinity column, and enzyme activity evaluation was performed using the enzyme. The enzyme was used after preservation at −70° C. The RIPK1 enzyme inhibitory activity of the test compound was measured using ADP-Glo™ Kinase Assay (Promega) according the following experiment methods. The test compound diluted with assay buffer (25 mM HEPES (pH 7.5), 10 mM MgCl2, 0.01% Tween-20, 2 mM DTT) was added to 384 well plate by each 2 μL. Next, RIPK1 enzyme solution diluted with the assay buffer was added thereto by each 2 μL, and the mixture was incubated at room temperature for 20 min. After the incubation, 0.6 mM ATP solution was added thereto by each 2 μL to initiate an enzyme reaction. The mixture was incubated at room temperature for 120 min, and ADP-Glo solution prepared according to Promega protocol was added to the 384 well plate by each 3 μL, and the reaction was performed at room temperature for 40 min. Then, Kinase-Detection solution was added to the 384 well plate by each 6 μL, and the reaction was performed at room temperature for 40 min. After the reaction, the luminescence intensity was measured by plate reader Envision (PerkinElmer).
row,human RIPK1 enzyme inhibitory effect at 10 μM (% inhibition),Compound
1,100%,"CN1C(=O)C(N2CCc3c(nn(Cc4c(F)cccc4F)c3Cl)C2=O)CCc2c1cnn2C (stereo not shown) [Example 133, 6-(3-chloro-2-(2,6-difluorobenzyl)-7-oxo-2,4,5,7-tetrahydro-6H-pyrazolo[3,4-c]pyridin-6-yl)-1,4-dimethyl-4,6,7,8-tetrahydropyrazolo[4,3-b]azepin-5(1H)-one]"
2,69%,"CN1C(=O)C(N2CCc3c(nn(Cc4ccccc4)c3Cl)C2=O)CCc2cccnc21 (stereo not shown) [Example 93, 7-(2-benzyl-3-chloro-7-oxo-2,4,5,7-tetrahydro-6H-pyrazolo[3,4-c]pyridin-6-yl)-9-methyl-5,6,7,9-tetrahydro-8H-pyrido[2,3-b]azepin-8-one]"
3,87%,"CNC(=O)c1ccc2c(c1)CCC(N1CCc3c(nn(Cc4ccccc4)c3Cl)C1=O)C(=O)N2C (stereo not shown) [Example 137, 3-(2-benzyl-3-chloro-7-oxo-2,4,5,7-tetrahydro-6H-pyrazolo[3,4-c]pyridin-6-yl)-N,1-dimethyl-2-oxo-2,3,4,5-tetrahydro-1H-1-benzazepine-7-carboxamide]"

# Same assay, conditions: read-out: human RIPK1 enzyme inhibitory effect at 10 μM (% inhibition), 10 μM test compound; well without enzyme = 100% inhibition
row,inhibition at 10 µM,Compound
1,87%,"CN1C(=O)[C@@H](N2CCc3c(nn(Cc4ccccc4)c3O)C2=O)COc2ccccc21 [Example 49, (3S)-3-(2-benzyl-3-hydroxy-7-oxo-2,4,5,7-tetrahydro-6H-pyrazolo[3,4-c]pyridin-6-yl)-5-methyl-2,3-dihydro-1,5-benzoxazepin-4(5H)-one]"
2,100%,"CCNC(=O)c1ccc2c(c1)OC[C@H](N1CCc3c(nn(Cc4ccccc4)c3Cl)C1=O)C(=O)N2C [Example 147, (3S)-3-(2-benzyl-3-chloro-7-oxo-2,4,5,7-tetrahydro-6H-pyrazolo[3,4-c]pyridin-6-yl)-N-ethyl-5-methyl-4-oxo-2,3,4,5-tetrahydro-1,5-benzoxazepine-8-carboxamide]"
3,88%,"O=C1Nc2ccccc2CCC1n1ccc2cn(Cc3ccccc3)nc2c1=O (stereo not shown) [Example 5, 3-(2-benzyl-7-oxo-2,7-dihydro-6H-pyrazolo[3,4-c]pyridin-6-yl)-1,3,4,5-tetrahydro-2H-1-benzazepin-2-one]"
4,99%,"CN1C(=O)[C@@H](N2CCc3cn(Cc4ccoc4)nc3C2=O)COc2ccccc21 [Example 34, (3S)-3-(2-(3-furylmethyl)-7-oxo-2,4,5,7-tetrahydro-6H-pyrazolo[3,4-c]pyridin-6-yl)-5-methyl-2,3-dihydro-1,5-benzoxazepin-4(5H)-L-one]"
5,97%,"CN1C(=O)[C@@H](N2CCc3cn(Cc4ccccc4F)nc3C2=O)COc2cc(C#N)ccc21 [Example 43, (3S)-3-(2-(2-fluorobenzyl)-7-oxo-2,4,5,7-tetrahydro-6H-pyrazolo[3,4-c]pyridin-6-yl)-5-methyl-4-oxo-2,3,4,5-tetrahydro-1,5-benzoxazepine-8-carbonitrile]"
6,101%,"CNC(=O)c1ccc2c(c1)OC[C@H](N1CCc3c(nn(Cc4ccccc4F)c3Cl)C1=O)C(=O)N2C [Example 47, (3S)-3-(3-chloro-2-(2-fluorobenzyl)-7-oxo-2,4,5,7-tetrahydro-6H-pyrazolo[3,4-c]pyridin-6-yl)-N,5-dimethyl-4-oxo-2,3,4,5-tetrahydro-1,5-benzoxazepine-8-carboxamide]"
7,95%,"CN1C(=O)[C@@H](N2CCc3cn(Cc4cccnc4)nc3C2=O)COc2ccccc21 [Example 153, (3S)-5-methyl-3-(7-oxo-2-(pyridin-3-ylmethyl)-2,4,5,7-tetrahydro-6H-pyrazolo[3,4-c]pyridin-6-yl)-2,3-dihydro-1,5-benzoxazepin-4(5H)-one]"
8,86%,"CN1C(=O)[C@@H](N2CCc3cn(Cc4ncccn4)nc3C2=O)COc2ccccc21 [Example 36, (3S)-5-methyl-3-(7-oxo-2-(pyrimidin-2-ylmethyl)-2,4,5,7-tetrahydro-6H-pyrazolo[3,4-c]pyridin-6-yl)-2,3-dihydro-1,5-benzoxazepin-4(5H)-one]"
9,98%,"CN1C[C@H](N2CCc3cn(Cc4ccccc4)nc3C2=O)C(=O)N(C)c2ccccc21 [Example 151, (3S)-3-(2-benzyl-7-oxo-2,4,5,7-tetrahydro-6H-pyrazolo[3,4-c]pyridin-6-yl)-1,5-dimethyl-1,3,4,5-tetrahydro-2H-1,5-benzodiazepin-2-one]"
10,97%,"CN1C(=O)C(N2CCc3c(nn(Cc4ccccc4)c3Cl)C2=O)CCc2ccncc21 (stereo not shown) [Example 101, 3-(2-benzyl-3-chloro-7-oxo-2,4,5,7-tetrahydro-6H-pyrazolo[3,4-c]pyridin-6-yl)-1-methyl-1,3,4,5-tetrahydro-2H-pyrido[3,4-b]azepin-2-one]"
11,100%,"COCc1ccc2c(c1)OC[C@H](N1CCc3c(nn(Cc4ccccc4)c3Cl)C1=O)C(=O)N2C [Example 141, (3S)-3-(2-benzyl-3-chloro-7-oxo-2,4,5,7-tetrahydro-6H-pyrazolo[3,4-c]pyridin-6-yl)-8-(methoxymethyl)-5-methyl-2,3-dihydro-1,5-benzoxazepin-4(5H)-one]"
12,97%,"O=C1Nc2ccccc2CCC1N1CCc2cn(Cc3ccccc3)nc2C1=O (stereo not shown) [Example 3, 3-(2-benzyl-7-oxo-2,4,5,7-tetrahydro-6H-pyrazolo[3,4-c]pyridin-6-yl)-1,3,4,5-tetrahydro-2H-1-benzazepin-2-one]"
13,100%,"Cc1c2c(nn1Cc1ccccc1)C(=O)N([C@H]1COc3ccccc3N(C)C1=O)CC2 [Example 11, (3S)-3-(2-benzyl-3-methyl-7-oxo-2,4,5,7-tetrahydro-6H-pyrazolo[3,4-c]pyridin-6-yl)-5-methyl-2,3-dihydro-1,5-benzoxazepin-4(5H)-one]"
14,99%,"CN1C(=O)[C@@H](N2CCc3cn(Cc4ccc(Cl)cc4)nc3C2=O)CSc2ccccc21 [Example 150, (3R)-3-(2-(4-chlorobenzyl)-7-oxo-2,4,5,7-tetrahydro-6H-pyrazolo[3,4-c]pyridin-6-yl)-5-methyl-2,3-dihydro-1,5-benzothiazepin-4(5H)-one]"
15,97%,"CN1C(=O)[C@@H](N2CCc3cn(CC4CCCOC4)nc3C2=O)COc2ccccc21 (stereo partly drawn) [Example 170, (3S)-5-methyl-3-(7-oxo-2-(tetrahydro-2H-pyran-3-ylmethyl)-2,4,5,7-tetrahydro-6H-pyrazolo[3,4-c]pyridin-6-yl)-2,3-dihydro-1,5-benzoxazepin-4(5H)-one]"
16,98%,"COc1c2c(nn1Cc1ccccc1)C(=O)N([C@H]1COc3ccccc3N(C)C1=O)CC2 [Example 48, (3S)-3-(2-benzyl-3-methoxy-7-oxo-2,4,5,7-tetrahydro-6H-pyrazolo[3,4-c]pyridin-6-yl)-5-methyl-2,3-dihydro-1,5-benzoxazepin-4(5H)-one]"
17,99%,"CN1C(=O)C(N2CCc3c(nn(Cc4ccccc4F)c3Cl)C2=O)CCc2cnccc21 (stereo not shown) [Example 105, 3-(3-chloro-2-(2-fluorobenzyl)-7-oxo-2,4,5,7-tetrahydro-6H-pyrazolo[3,4-c]pyridin-6-yl)-1-methyl-1,3,4,5-tetrahydro-2H-pyrido[4,3-b]azepin-2-one]"
18,100%,"Cc1c2c(nn1Cc1ccccc1F)C(=O)N([C@H]1COc3cc(C#N)ccc3N(C)C1=O)CC2 [Example 112, (3S)-3-(2-(2-fluorobenzyl)-3-methyl-7-oxo-2,4,5,7-tetrahydro-6H-pyrazolo[3,4-c]pyridin-6-yl)-5-methyl-4-oxo-2,3,4,5-tetrahydro-1,5-benzoxazepine-8-carbonitrile]"
19,102%,"CN1C(=O)[C@@H](N2CCc3c(nn(Cc4ccccc4)c3Cl)C2=O)COc2cc(-c3cn[nH]c3)ccc21 [Example 140, (3S)-3-(2-benzyl-3-chloro-7-oxo-2,4,5,7-tetrahydro-6H-pyrazolo[3,4-c]pyridin-6-yl)-5-methyl-8-(1H-pyrazol-4-yl)-2,3-dihydro-1,5-benzoxazepin-4(5H)-one]"
20,101%,"CN1C(=O)[C@@H](N2CCc3c(nn(Cc4ccccc4)c3Cl)C2=O)COc2cc(-c3ccn(C)n3)c(F)cc21 [Example 125, (3S)-3-(2-benzyl-3-chloro-7-oxo-2,4,5,7-tetrahydro-6H-pyrazolo[3,4-c]pyridin-6-yl)-7-fluoro-5-methyl-8-(1-methyl-1H-pyrazol-3-yl)-2,3-dihydro-1,5-benzoxazepin-4(5H)-one]"
21,101%,Cc1c2c(nn1Cc1ccccc1)C(=O)N([C@H]1COc3cc(Br)ccc3N(C)C1=O)CC2 [Example 84]
22,101%,"CN1C(=O)[C@@H](N2CCc3c(nn(Cc4ccccc4)c3Cl)C2=O)COc2ccc(C#N)cc21 [Example 145, (3S)-3-(2-benzyl-3-chloro-7-oxo-2,4,5,7-tetrahydro-6H-pyrazolo[3,4-c]pyridin-6-yl)-5-methyl-4-oxo-2,3,4,5-tetrahydro-1,5-benzoxazepine-7-carbonitrile]"
